Laboratory results from ChEMBL document CHEMBL4229535, “Design, synthesis and evaluation of oxime-functionalized nitrofuranylamides as novel antitubercular agents” (2018).
≈ marks a conversion by molar mass, not a printed value.

Legend:
Format in all cases: functional
[1] = system: Mycobacterium tuberculosis; experiment: Antimycobacterial activity against multidrug-resistant Mycobacterium tuberculosis isolate 16833 after 7 days by microplate alamar blue assay; details: isolate 16833, 168 h
[2] = system: Mycobacterium tuberculosis; experiment: Antimycobacterial activity against multidrug-resistant Mycobacterium tuberculosis isolate 16995 after 7 days by microplate alamar blue assay; details: isolate 16995, 168 h
[3] = Resistance index, ratio of MIC>90 for multidrug-resistant Mycobacterium tuberculosis clinical isolate 16833 to MIC>90 for Mycobacterium tuberculosis H37Rv ATCC 27294
[4] = Resistance index, ratio of MIC>90 for multidrug-resistant Mycobacterium tuberculosis clinical isolate 16995 to MIC>90 for Mycobacterium tuberculosis H37Rv ATCC 27294

Row | SMILES | MIC90 [1] | MIC90 [2] | Ratio [3] | Ratio [4]
1 | O=C(c1ccc([N+](=O)[O-])o1)N1CCC(=NOCc2ccccc2)CC1 | 0.482 µg/mL (≈ 1.4 µM) | 0.426 µg/mL (≈ 1.24 µM) | 1 | 1
2 | O=C(c1ccc([N+](=O)[O-])o1)N1CCc2ccccc21 | > 4 µg/mL | > 4 µg/mL | – | –
3 | NNC(=O)c1ccncc1 [ISONIAZID] | > 40 µg/mL | > 40 µg/mL | – | –
4 | O=C(c1ccc([N+](=O)[O-])o1)N1CC/C(=N\OCc2ccccc2)C1 | 0.207 µg/mL (≈ 0.629 µM) | 0.38 µg/mL (≈ 1.15 µM) | 1 | 1
5 | CO/N=C1\CCN(C(=O)c2ccc([N+](=O)[O-])o2)C1 | 1.93 µg/mL (≈ 7.61 µM) | 1.91 µg/mL (≈ 7.54 µM) | 1 | 1
6 | CON=C1CCN(C(=O)c2ccc([N+](=O)[O-])o2)CC1 | 1.91 µg/mL (≈ 7.16 µM) | 1.94 µg/mL (≈ 7.24 µM) | 1 | 1
7 | CO[C@H]1/C=C/O[C@@]2(C)Oc3c(C)c(O)c4c(O)c(c(/C=N/N5CCN(C)CC5)c(O)c4c3C2=O)NC(=O)/C(C)=C\C=C\[C@H](C)[C@H](O)[C@@H](C)[C@@H](O)[C@@H](C)[C@H](OC(C)=O)[C@@H]1C [RIFAMPIN] | > 40 µg/mL | > 40 µg/mL | – | –
